EP0268663B1, “PHOSPHOPEPTIDES” (THE UNIVERSITY OF MELBOURNE, priority 1986, dated 1995)
Square brackets hold non-standard residues; d marks the D form. Peptide text beside a SMILES is read from it. pS = N[C@@H](COP(=O)(O)O)C(=O)O

How the values were obtained:
[1] = Sequestration of calcium phosphate by the peptide; assay type: physicochemical; details: 10mg/ml solution at pH 7.0; metastable supersaturated solution
Procedure: The active peptides can sequester calcium phosphate and other salts of divalent metal ions. One mole of T1 binds 16 mole of CaHPO₄ such that a 10mg/ml solution of T1 at pH 7.0 can solubilize 60mM CaHPO₄ producing a metastable supersaturated solution with respect to calcium phosphate species. With chloride as the counter ion one mole of T1 binds only 5 mole of Ca⁺⁺ binding only to serine phosphates. One mole of T1 with about 16 mole of CaHPO₄ bound (M.W. 4883) will henceforth be referred to as calcium phosphate T1.

Intra-Oral Caries Test = assay type: in vivo; details: plaque exposed twice a day to the peptide T1 solution (1.8% w/v calcium phosphate T1)
Procedure: The anticariogenicity of phosphopeptide T1 was determined using a modification of the intra-oral caries test of Koulourides and Ostrom (Caries Res. 10:442-482, 1976). Enamel slabs were inset in a removable intra-oral appliance to simulate an approximal area. This was done on both sides of the removable appliance (left and right). The appliance was worn to allow plaque accumulation in the simulated approximal areas. Eight times a day the appliance was removed and placed in a solution at 37°C. The solution was 2% w/v sucrose, 2% w/v glucose, 140 mM KCl, 20mM NaCl at pH 7.0. Twice a day the right side enamel slabs received exposure to a solution containing 1.8% w/v calcium phosphate T1 in 140 mM KCl, 20 mM NaCl at pH 7.0, while the left side received only the salt solution. At the completion of the experiment the enamel slabs were removed, sectioned and subjected to microradiography and microhardnass testing. […] The results were confirmed by microhardness analysis. Plaque was also taken from both sides of the appliance and analysed for calcium phosphate, serine phosphate and peptide T1 using a competitive, quantitative, enzyme-linked immunosorbent assay (ELISA) utilising monoclonal antipeptide T1 antibodies.

CaHPO₄ solubilized [1]: 60 mM | level of peptide in plaque (ELISA) (Intra-Oral Caries Test): at least 0.4 % w/wet wt of plaque
Compound: CC[C@H](C)[C@H](NC(=O)[C@H](COP(=O)(O)O)NC(=O)[C@H](CCC(=O)O)NC(=O)[C@H](C)NC(=O)[C@H](CCC(=O)O)NC(=O)[C@H](CCSC)NC(=O)[C@@H](N)CCC(=O)O)C(=O)N[C@@H](COP(=O)(O)O)C(=O)N[C@@H](COP(=O)(O)O)C(=O)N[C@@H](COP(=O)(O)O)C(=O)N[C@@H](CCC(=O)O)C(=O)N[C@@H](CCC(=O)O)C(=O)N[C@H](C(=O)N[C@H](C(=O)N1CCC[C@H]1C(=O)N[C@@H](CC(N)=O)C(=O)N[C@@H](COP(=O)(O)O)C(=O)N[C@H](C(=O)N[C@@H](CCC(=O)O)C(=O)N[C@@H](CCC(N)=O)C(=O)N[C@@H](CCCCN)C(=O)O)C(C)C)C(C)C)[C@@H](C)CC [Phosphopeptide T1] (H-EMEAE[pS]I[pS][pS][pS]EEIVPN[pS]VEQK-OH)
